The melting point is the temperature, or range, at which the solid turns liquid.

Here are results for 20 compounds from paper PMC5785958, “New role of phenothiazine derivatives as peripherally acting CB1 receptor antagonizing anti-obesity agents” (Scientific Reports, 2018).

Series [1] is described as follows: PAMPA-BBB in vitro permeability assay. The format is in vitro ADME, porcine. Also noted: key to Prediction (penetration in CNS): CNS- indicates low passive CNS permeation. Conditions: for Prediction (penetration in CNS): from PAMPA-BBB Pe, Pe less than 3.8 × 10^−6 cm s^−1 = low BBB permeation; for Papp at 120 min, 100 µg/ml: pig, PAMPA-BBB, porcine brain lipid, PBS/ethanol (70:30), 25 °C, mean ± SEM of three experiments, read-out: Pe. How it is done: As discussed above, BBB permeation of the available CB1 receptor antagonists limits their therapeutic utility. A successful CB1 receptor antagonist to be used as anti-obesity agent must be devoid of BBB permeability. […] In this study, the ability of the test compounds to cross the BBB was determined by the well established in vitro model PAMPA-BBB assay. This simple and rapid model has the advantage to predict passive BBB permeation with high accuracy[57],[58]. The in vitro permeability (Pe) of the test compounds through the lipid extract of porcine brain was determined in PBS/ethanol (70:30).
To assess the in vivo brain permeability potential of the test compounds, PAMPA assay for BBB was performed as reported by Di. et al.[57]. The donor microplate (polyvinylidene fluoride (PVDF) membrane, diameter 25 mm, pore size 0.45 µm Millipore) and the acceptor microplate were used for the experiment. The acceptor microplate was filled with 200 µl phosphate buffer saline (PBS) and ethanol in the ratio of 70:30 whereas the donor microplate filter surface was impregnated with porcine brain lipid (Avanti Polar Lipids) in dodecane (Sigma) (4 µl of 20 mg/ml). 200 µl of the test compound (100 µg/ml in PBS/ethanol) was added to the donor well. A sandwich was formed by placing the donor plate carefully on the acceptor plate, and the plates were kept undisturbed for 120 min at 25 °C. The donor plate was carefully detached after the incubation period and concentration of the test compound in the acceptor wells was determined using UV spectroscopy. Each sample was analyzed in four wells at five different wavelengths, and at least in three independent runs. Assay validation was performed by using nine commercial quality standard drugs of known BBB permeability[75] in which the reported permeability values of the standards were compared with their experimental permeability values, which gave a linear relationship, Pe(exp.) = 1.171Pe(bibl.) + 1.489 (R^2 = 0.983)[57],[58].

In another series the test system is Wistar rats. The series is described as follows: Acute hypophagic response in 24 h food-deprived rats. The format is in vivo, rat. Conditions: for effect on food intake (in words): 2 h. Here is the method:
As a preliminary screening, the synthesized compounds were evaluated for acute hypophagia in rats and the results are summarized in Fig. 5. Twenty four hour food deprived Wistar rats were given weighed amounts of food pellets after administration of the test compounds. Quantum of food consumed by the control group of animals was considered as 100%.
Male Wistar rats weighing 200–250 g were used in the present study to assess the acute hypophagic response. Animals were housed individually in a plexi-glass cage in a temperature and humidity controlled room with a 12 h light/dark cycle. Standard chow pellets and water were made available ad libitum. Animals were handled daily for a week before performing the actual experiments. The animal study protocol was approved by the Institutional Animal Ethics Committee (IAEC) of Faculty of Pharmacy, The Maharaja Sayajirao University of Baroda (Approval no. MSU/IAEC/2014-15/1401). The experiments were conducted in accordance to the guidelines of CPCSEA (Committee for the Purpose of Control and Supervision of Experiments on Animals), Ministry of Environment & Forests, Govt. of India. We tried our best to reduce the number of animals and their suffering.
The acute effect of the synthesized test compounds on feeding behavior was assessed in 24 h food-deprived animals. Before performing the experiments, the bedding material was removed from the cage. The animals were deprived of feed for 24 h with free access to water. The fasted animals were administered with the test compounds (10 mg/kg, p.o.). After 30 min of administration, weighed amounts of food pellets were served to the animals. Amount of food pellets and food spillage remaining after 2 h were weighed to find out the amount of food consumed by the animals.

The mark [2] stands for this setting: 24 h fasted male Wistar rats, 10 mg/kg p.o., food served after 30 min, intake over 2 h.
[3] abbreviates: 24 h fasted male Wistar rats, 10 mg/kg p.o.

The compound `CCOC(=O)c1cnc(SCC(=O)N2c3ccccc3Sc3ccc(Cl)cc32)nc1N` [Compound 26, Ethyl 4-amino-2-(2-(2-chloro-10H-phenothiazin-10-yl)-2-oxoethylthio)pyrimidine-5-carboxylate] yielded a melting point of 156 to 158 °C. Moreover, in series [1], the “Prediction (penetration in CNS)” value is “CNS-” and the Papp at 120 min, 100 µg/ml was 3.66 ± 0.67 ×10⁻⁶ cm/s. Moreover, in the series with Wistar rats (setting [2]), the “food intake (control = 100%)” value is on record as 62–74%.

In the case of `COc1ccc2c(c1)N(C(=O)CSc1nnc(-c3ccncc3)n1N)c1ccccc1S2` [Compound 35, 2-(4-Amino-5-(4-pyridyl)-4H-1,2,4-triazol-3-ylthio)-1-(2-methoxy-10H-phenothiazin-10-yl)ethanone], the melting point was in the range of 188 to 190 °C.

`CCOC(=O)c1cnc(SCCCN2c3ccccc3Sc3ccc(Cl)cc32)nc1N` [Compound 47, Ethyl 4-amino-2-(3-(2-chloro-10H-phenothiazin-10-yl)propylthio)pyrimidine-5-carboxylate]: the melting point is 120 to 122 °C. For the same compound, in series [1], the “Prediction (penetration in CNS)” value is on record as “CNS-” and the Papp at 120 min, 100 µg/ml was 3.28 ± 0.38 ×10⁻⁶ cm/s. Besides, in the series on Wistar rats (setting [2]), the “food intake (control = 100%)” value is 62–74%.

Take `N#Cc1cnc(SCC(=O)N2c3ccccc3Sc3ccccc32)nc1N` [Compound 24, 4-Amino-2-(2-oxo-2-(10H-phenothiazin-10-yl)ethylthio)pyrimidine-5-carbonitrile]: the melting point was 241 to 243 °C.

As to `O=C(CSc1nnc(-c2ccncc2)o1)N1c2ccccc2Sc2ccccc21` [Compound 32, 1-(10H-Phenothiazin-10-yl)-2-(5-(4-pyridyl)-1,3,4-oxadiazol-2-ylthio)ethanone], the melting point fell in the range of 212 to 214 °C. Also, in series [1], the “Prediction (penetration in CNS)” value is recorded as “CNS-” and the Papp at 120 min, 100 µg/ml was 3.22 ± 0.63 ×10⁻⁶ cm/s. Moreover, the “effect on food intake (in words)” value in the series on Wistar rats (setting [3]) is listed as “no effect on food intake”. In the series with Wistar rats (setting [2]), the “food intake (control = 100%)” value is 80–99%.

As for `N#Cc1cnc(SCC(=O)N2c3ccccc3Sc3ccc(C(F)(F)F)cc32)nc1N` [Compound 5, 4-Amino-2-(2-(2-trifluoromethyl-10H-phenothiazin-10-yl)-2-oxoethylthio)pyrimidine-5-carbonitrile], the melting point is 218 to 220 °C. In addition, in series [1], the “Prediction (penetration in CNS)” value is listed as “CNS-” and the Papp at 120 min, 100 µg/ml is 2.78 ± 0.14 ×10⁻⁶ cm/s. Besides, the “effect on food intake (in words)” value in the series with Wistar rats (setting [3]) is reported as “weak short acting hypophagic activity”. Further, the “food intake (control = 100%)” value in the series on Wistar rats (24 h fasted male Wistar rats, 10 mg/kg p.o., food served after 30 min, intake over 2 h, 10 mg/kg) is listed as 62–74%. Besides, in the series with Wistar rats (po, 10 mg/kg), the “food intake (control = 100%)” value is recorded as 62%.

With `N#Cc1cnc(SCCCN2c3ccccc3Sc3ccc(Cl)cc32)nc1N` [Compound 43, 4-Amino-2-(3-(2-chloro-10H-phenothiazin-10-yl)propylthio)pyrimidine-5-carbonitrile], the melting point was in the range of 138 to 140 °C. In series [1], the “Prediction (penetration in CNS)” value is listed as “CNS-” and the Papp at 120 min, 100 µg/ml was 3.47 ± 0.66 ×10⁻⁶ cm/s. In the series with Wistar rats (setting [2]), the “food intake (control = 100%)” value is listed as 62–74%.

`O=C(CSc1nnc(-c2ccncc2)o1)N1c2ccccc2Sc2ccc(C(F)(F)F)cc21` [Compound 29, 2-(5-(4-Pyridyl)-1,3,4-oxadiazol-2-ylthio)-1-(2-trifluoromethyl-10H-phenothiazin-10-yl)ethanone] gave a melting point of 156 to 158 °C.

For `Nn1c(SCC(=O)N2c3ccccc3Sc3ccccc32)nnc1-c1ccncc1` [Compound 36, 2-(4-Amino-5-(4-pyridyl)-4H-1,2,4-triazol-3-ylthio)-1-(10H-phenothiazin-10-yl)ethanone], the melting point is 232 to 234 °C.

`CCOC(=O)c1cnc(SCCCN2c3ccccc3Sc3ccc(OC)cc32)nc1N` [Compound 48, Ethyl 4-amino-2-(3-(2-methoxy-10H-phenothiazin-10-yl)propylthio)pyrimidine-5-carboxylate]: the melting point lay within 106 to 108 °C.

Regarding `N#Cc1cnc(SCC(=O)N2c3ccccc3Sc3ccc(Cl)cc32)nc1N` [Compound 22, 4-Amino-2-(2-(2-chloro-10H-phenothiazin-10-yl)-2-oxoethylthio)pyrimidine-5-carbonitrile], the melting point was in the range of 222 to 224 °C. Moreover, in series [1], the “Prediction (penetration in CNS)” value is given as “CNS-” and the Papp at 120 min, 100 µg/ml was 2.28 ± 0.11 ×10⁻⁶ cm/s. For the same compound, the “food intake (control = 100%)” value in the series on Wistar rats (setting [2]) is 62–74%.

The compound `N#Cc1cnc(SCCCN2c3ccccc3Sc3ccc(C(F)(F)F)cc32)nc1N` [Compound 42, 4-Amino-2-(3-(2-trifluoromethyl-10H-phenothiazin-10-yl)propylthio)pyrimidine-5-carbonitrile] displayed a melting point of 164 to 166 °C. In addition, in series [1], the “Prediction (penetration in CNS)” value was “CNS-” and the Papp at 120 min, 100 µg/ml is 2.6 ± 0.18 ×10⁻⁶ cm/s. In the series on Wistar rats (setting [3]), the “effect on food intake (in words)” value is on record as “no effect on the food intake”. Further, the “food intake (control = 100%)” value with Wistar rats (setting [2]) is listed as 80–99%.

In turn, `CCOC(=O)c1cnc(SCCCN2c3ccccc3Sc3ccc(C(F)(F)F)cc32)nc1N` [Compound 46, Ethyl 4-amino-2-(3-(2-trifluoromethyl-10H-phenothiazin-10-yl)propylthio)pyrimidine-5-carboxylate] displayed a melting point of 118 to 120 °C. Also, in series [1], the “Prediction (penetration in CNS)” value was “CNS-” and the Papp at 120 min, 100 µg/ml was 2.84 ± 0.28 ×10⁻⁶ cm/s. In addition, in the series on Wistar rats (setting [2]), the “food intake (control = 100%)” value is reported as 62–74%.

The compound `CCOC(=O)c1cnc(SCCCN2c3ccccc3Sc3ccccc32)nc1N` [Compound 49, Ethyl 4-amino-2-(3-(10H-phenothiazin-10-yl)propylthio)pyrimidine-5-carboxylate] registered a melting point of 146 to 148 °C.

In turn, `CCOC(=O)c1cnc(SCC(=O)N2c3ccccc3Sc3ccccc32)nc1N` [Compound 28, Ethyl 4-amino-2-(2-oxo-2-(10H-phenothiazin-10-yl)ethylthio)pyrimidine-5-carboxylate] displayed a melting point of 202 to 204 °C.

The compound `Nn1c(SCC(=O)N2c3ccccc3Sc3ccc(C(F)(F)F)cc32)nnc1-c1ccncc1` [Compound 33, 2-(4-Amino-5-(4-pyridyl)-4H-1,2,4-triazol-3-ylthio)-1-(2-(trifluoromethyl)-10H-phenothiazin-10-yl)ethanone] displayed a melting point of 202 to 204 °C. In addition, in series [1], the “Prediction (penetration in CNS)” value is “CNS-” and the Papp at 120 min, 100 µg/ml was 1.05 ± 0.22 ×10⁻⁶ cm/s. Further, the “effect on food intake (in words)” value in the series with Wistar rats (setting [3]) is recorded as “did not impact the food intake”. Moreover, the “food intake (control = 100%)” value in the series with Wistar rats (setting [2]) is 80–99%.

For `O=C(CSc1nnc(-c2ccncc2)o1)N1c2ccccc2Sc2ccc(Cl)cc21` [Compound 30, 1-(2-Chloro-10H-phenothiazin-10-yl)-2-(5-(4-pyridyl)-1,3,4-oxadiazol-2-ylthio)ethanone], the melting point was 194 to 196 °C.

As for `N#Cc1cnc(SCCCN2c3ccccc3Sc3ccccc32)nc1N` [Compound 45, 4-Amino-2-(3-(10H-phenothiazin-10-yl)propylthio)pyrimidine-5-carbonitrile], the melting point lay in the range of 117 to 119 °C.

Consider `COc1ccc2c(c1)N(CCCSc1ncc(C#N)c(N)n1)c1ccccc1S2` [Compound 44, 4-Amino-2-(3-(2-methoxy-10H-phenothiazin-10-yl)propylthio)pyrimidine-5-carbonitrile], for which the melting point was in the range of 158 to 160 °C. In series [1], the “Prediction (penetration in CNS)” value was “CNS-” and the Papp at 120 min, 100 µg/ml was 3.58 ± 0.73 ×10⁻⁶ cm/s. Moreover, the “food intake (control = 100%)” value in the series with Wistar rats (setting [2]) is 62–74%.

Turning to `COc1ccc2c(c1)N(C(=O)CSc1nnc(-c3ccncc3)o1)c1ccccc1S2` [Compound 31, 1-(2-Methoxy-10H-phenothiazin-10-yl)-2-(5-(4-pyridyl)-1,3,4-oxadiazol-2-ylthio)-ethanone], the melting point lay in the range of 166 to 168 °C.
